Key:
[1] = tested on: log phase NDM-1 Klebsiella pneumoniae (NCTC 13443 strain); assay: Time-kill of suloctidil and colistin, alone and in combination, against log phase NDM-1 Klebsiella pneumoniae; format: cell-based; details: for kill effect (CFU counts): colistin alone 16 μg/ml, FIG. 19
Procedure: The synergistic effect of suloctidil in combination with colistin was tested against log phase NDM-1 Klebsiella pneumoniae using time-kill methods over a period of 24 hours.
Bacterial strain used: NCTC 13443 strain of NDM-1 Klebsiella pneumoniae
Growth of bacteria: Log phase growth of the bacteria was carried out according to methods known in the art.
(§1) (i) Suloctidil was obtained from a commercial source and dissolved in DMSO to make a stock concentration of 10 mg/ml.
(§2) (ii) Colistin was obtained from a commercial source at a concentration of 20 mg/ml.
Both suloctidil and colistin were then added to 96 well plates either alone or in the combinations shown below in Table 1.
(§3) The overnight culture was diluted with nutrient broth (Oxoid) to 10^7 CFU/ml and 280 μl and 290 μl of the culture was added to each combination well and single agent well, respectively, to make a final […] of 300 μl. Incubation of the compounds with the bacterial suspension was carried out for 24 hours. At 0, 2, 4, 7 and 25 hours, CFU counts were performed to measure the kill effects of the drug combination.

[2] = tested on: log phase NDM-1 E. coli (BAA2469 strain); assay: Time-kill of suloctidil and colistin, alone and in combination, against log phase NDM-1 E. coli; format: cell-based; details: FIGS. 28 to 34
Procedure: Materials and Methods • Bacterial strain used: BAA2469 strain of NDM-1 E. coli • Growth of bacteria: Log phase growth of bacteria was carried out according to methods known in the art.
as §1, §2
Both suloctidil and colistin were then added to 96 well plates either alone or in the combinations shown below in Table 2.
as §3

Compound	antimicrobial effect when used alone ([1]; suloctidil alone at 32, 16, 8 and 4 μg/ml, time-kill, FIGS. 18 to 27)	antimicrobial effect when used alone ([2]; suloctidil alone at 16, 8 and 4 μg/ml)	kill effect (CFU counts) ([1]; after 7 hours)	kill effect (CFU counts) ([1]; after 25 hours)	antimicrobial effect when used alone ([1]; colistin alone at 8 and 4 μg/ml, time-kill, FIGS. 20, 21, 24, 25 and 27)	duration of the antimicrobial effect ([1]; colistin alone at 32 and 16 μg/ml, time-kill)	antimicrobial effect when used alone ([1]; colistin alone at 32 and 16 μg/ml, time-kill, FIGS. 18, 19, 22, 23 and 26)	antimicrobial effect when used alone ([2]; colistin alone at 8, 4, 2 and 1 μg/ml)
CCCCCCCCNC(C)C(O)c1ccc(SC(C)C)cc1 (centres unmarked) [suloctidil]	no antimicrobial effect	no antimicrobial effect	–	–	–	–	–	–
colistin	–	–	complete kill	bacteria re-growth	no antimicrobial effect	not long term	antimicrobial effect	no antimicrobial effect

Reference: patent US10335454B2, “Combination and use” (HELPERBY THERAPEUTICS LIMITED, priority 2014, dated 2019)
